Source: patent US9878007B2, “Syndecan peptides and polypeptides as inhibitors of vascular endothelial growth factor receptor-2 (VEGFR2) and very late antigen-4 (VLA-4)” (Wisconsin Alumni Research Foundation, priority 2015, dated 2018)
No end group written: not given here.

How the values were obtained:
VEGFR2 = target: T1, VEGFR2 (Homo sapiens, UniProt P35968); test: VEGFR2 activation (pY1054/1059 immunoblot) in HPSE^low CAG cells; assay type: cell-based; settings: 0.3 μM peptide, 2.5 h
T1 construct: endogenous in cells; host or cells: CAG human myeloma cells (HPSE^low = empty vector; HPSE^high = human HPSE cDNA)
T1 sequence (P35968 20-1356): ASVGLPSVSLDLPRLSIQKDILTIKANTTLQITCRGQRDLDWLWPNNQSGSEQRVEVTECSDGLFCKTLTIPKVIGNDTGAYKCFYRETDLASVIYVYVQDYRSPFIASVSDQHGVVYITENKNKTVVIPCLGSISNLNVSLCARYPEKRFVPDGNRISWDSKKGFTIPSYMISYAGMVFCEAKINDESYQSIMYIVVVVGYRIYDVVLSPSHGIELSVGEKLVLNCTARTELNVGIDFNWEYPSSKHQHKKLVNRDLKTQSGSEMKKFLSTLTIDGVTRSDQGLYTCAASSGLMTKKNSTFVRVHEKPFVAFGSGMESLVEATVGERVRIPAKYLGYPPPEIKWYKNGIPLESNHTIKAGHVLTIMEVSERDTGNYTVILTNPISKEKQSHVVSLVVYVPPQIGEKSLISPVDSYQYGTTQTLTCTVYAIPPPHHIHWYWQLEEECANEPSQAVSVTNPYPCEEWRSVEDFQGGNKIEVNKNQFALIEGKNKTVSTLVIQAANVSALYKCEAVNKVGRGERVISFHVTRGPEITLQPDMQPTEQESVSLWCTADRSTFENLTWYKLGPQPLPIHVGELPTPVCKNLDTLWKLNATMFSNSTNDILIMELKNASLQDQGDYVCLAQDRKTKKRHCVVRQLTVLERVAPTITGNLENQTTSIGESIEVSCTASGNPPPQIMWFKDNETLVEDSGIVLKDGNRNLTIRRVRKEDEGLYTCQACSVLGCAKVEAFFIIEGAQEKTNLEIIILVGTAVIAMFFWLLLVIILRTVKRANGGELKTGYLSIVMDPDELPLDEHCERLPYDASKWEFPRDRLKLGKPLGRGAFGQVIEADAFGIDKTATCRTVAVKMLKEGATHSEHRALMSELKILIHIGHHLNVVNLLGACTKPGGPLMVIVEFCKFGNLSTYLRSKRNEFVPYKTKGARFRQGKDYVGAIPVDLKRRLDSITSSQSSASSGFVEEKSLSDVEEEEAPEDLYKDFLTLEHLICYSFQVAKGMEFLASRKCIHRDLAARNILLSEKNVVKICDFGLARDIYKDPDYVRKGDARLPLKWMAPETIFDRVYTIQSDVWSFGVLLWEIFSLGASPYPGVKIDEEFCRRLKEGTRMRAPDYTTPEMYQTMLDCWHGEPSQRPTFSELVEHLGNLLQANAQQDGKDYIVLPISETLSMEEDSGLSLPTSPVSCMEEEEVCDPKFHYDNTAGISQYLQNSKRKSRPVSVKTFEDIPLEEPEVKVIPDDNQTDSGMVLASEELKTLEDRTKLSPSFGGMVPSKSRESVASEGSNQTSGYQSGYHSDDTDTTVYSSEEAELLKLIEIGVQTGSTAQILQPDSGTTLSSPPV
Description: FIGS. 4A-C. HPSE expression leads to activation of VEGFR2 when α4-integrin engages ligand. (FIG. 4A) HPSE^low and HPSE^high cells treated with or without 1 μM Vandetanib, 20 ng/ml VEGF, or 20 μg/ml VEGFR2 blocking antibody are plated on VCAM-1 to observe cell spreading (Bar=50 μm); (FIG. 4B) HPSE^high cells plated on FN were treated with MMP-9 blocking antibody or 1 μM Vandetanib in the absence or presence of 0.3 μM S1ED^210-236 (Bar=50 μm); (FIG. 4C) HPSE^low cells were kept in suspension or were seeded on FN in the absence or presence of 0.3 μM S1ED^210-236 for 2.5 h. Cell lysates were immunoblotted with antibodies against pY1054/1059 in VEGFR2 as a marker of VEGFR2 activation. Actin is shown as a loading control.
The inventors next questioned whether VEGFR2 is upstream (e.g., responsible for shedding) or downstream (e.g., a target of the shed Sdc1) of Sdc1 shedding by testing whether or not Sdc1 mimetic peptide could rescue Vandetinib-blocked spreading. HPSE^high cell spreading on FN was inhibited using either anti-MMP9 blocking antibody or Vandetanib in the presence or absence of S1ED^210-236. […] VEGFR2 activation was assessed by measuring autophosphorylation at Tyr1054/1059 in its kinase domain (Lamalice et al., 2007).

HMEC-1 cells = test: Attachment and spreading of HMEC-1 cells on IIICS; assay type: cell-based; settings: plated on IIICS; 30 μM peptides, 125 μg/ml SST0001, 10 μg/ml MMP9 blocking antibody
Description: FIGS. 8A-H. HPSE mediated the Sdc1-coupled VEGFR2 complex in endothelial cells induces angiogenesis. (FIG. 8A) Lysates from HPSE^low, HPSE^high and HMEC-1 cells are probed by immunoblotting for expression of HPSE. (FIG. 8B) HMEC-1 cells were seeded at equal density and grown in serum-free media for 24 hr in the absence or presence of 125 μg/ml of the HPSE inhibitor SST0001. After 24 hr, conditioned media were harvested, and the level of shed Sdc1 in the conditioned medium from each condition was determined by immunoblotting. (FIG. 8C) HMEC-1 cell lysate was incubated overnight with glutathione beads coated with GST or GST-S1ED. Capture of VLA-4 or VEGFR2 was detected by immunoblotting. (FIG. 8D) HMEC-1 cells were plated on IIICS for 3 hr and double stained for VLA-4 and Sdc1, VEGFR2 and Sdc1, or VLA-4 and VEGFR2. (FIG. 8E) HMEC-1 cells were treated with DMSO, VLA-4 blocking antibody P1H4, β1-integrin blocking antibody mAb13, 10 μg/ml MMP9 blocking antibody, 125 μg/ml HPSE inhibitor SST0001, Vandetanib, VEGFR2 blocking antibody, 30 μM S1ED^210-233 or 30 μM S1ED^214-240 and then plated on IIICS. Images were taken from random field with 200× magnification for counting attached and spread cells. (FIG. 8F) HMEC-1 cells were plated on IIICS in the presence of 10 μM of S1ED^210-236, S1ED^210-233, S1ED^215-240, and S1ED^214-240. […]

Substance	VEGFR2 phosphorylation at Tyr1054/1059 (VEGFR2; HPSE^low cells in suspension)	VEGFR2 phosphorylation at Tyr1054/1059 (VEGFR2; HPSE^low cells plated on FN)	VLA-4 dependent spreading of HMEC-1 cells (HMEC-1 cells)
DFTFETSGENTAVVAVEPDRRNQSPVD [S1ED^210-236]	no alteration of VEGFR2 phosphorylation	causes VEGFR2 phosphorylation in HPSE^low cells plated on FN	
S1ED^210-233: syndecan-1 ectodomain peptide, residues 210-233 (SEQ ID NO: 4) (DFTFETSGENTAVVAVEPDRRNQS)			prevented
